# Measurements taken from patent US11534457B2, “Use of dextran sulfate” (priority 2017, dated 2022).
# What was measured:
# mouse cortical neurons = test: PI staining (DNA content, cell cycle, cell numbers, apoptotic fraction), Acumen cytometry; assay type: cell-based; conditions: 0.01 and 0.1 mg/ml
# Procedure: (§1) The study aims were to evaluate the effect of LMW-DS on cell survival and expression of differentiation proteins in three cell types, cerebral cortical neurons, motor neurons and Schwann cells, using two concentrations 0.01 and 0.1 mg/ml of LMW-DS.
# (§2) Neurons were cultured as 40,000 cells per well and Schwann cells 3,000 cells per. Cells were treated after 24 hours. The number of cells per well depended on the growth phenotype, proliferative capacity, etc.
# PNGM was prepared by adding PNGM Singlequots (Lonza) to PNBM medium and pre-warmed to 37° C. Cells were thawed in a 37° C. water bath for no longer than 2 min and gently transferred into a 15 ml tube. 5 ml of medium was gently added drop-wise. Cell suspension was mixed by inverting the tube carefully twice. Cells were counted with a Cellometer AUTO T4 (Nexcelom Bioscience). 40,000 cells per well were seeded in previously coated 96-well plates. Cells were incubated at 37° C. with 5% CO2. After at 2-hour incubation 80 μl of medium was removed and replaced with 80 μl of fresh medium and cells were allowed to settle for 24 hours before drug treatment.
# (§3) LMW-DS was prepared in the culture media of choice for each cell line and added to the respective wells in the doses 0.01 and 0.1 mg/ml. For cell survival assays cells were analyzed after 24 and 48 hours in eight identical wells/dose/time point. Differentiation and protein expression assay was analyzed after 48 hours, also in octuplicates.
# Cells were fixated in the wells. Propidium iodine was used for viability assay. For immunohistochemical analysis, neurons were stained with βIII-tubulin, which is a tubulin specific for neurons. Schwann cells were stained for Myelin Basic Protein (MBP). For the negative controls PBST (0.1% Triton-X-100 in PBS) was applied instead of primary antibodies.
# (§4) The Acumen cytometer allows the direct cytometric analysis of attached cells without prior detachment. […] The protein content of the cells can also be directly measured and expressed as either ‘total protein content’ or ‘mean protein content’.
# human Schwann cells = test: as above; assay type: cell-based; conditions: 0.01 and 0.1 mg/ml
# Procedure: as §1, §2
# Schwann cells growth medium was prepared by adding 10% of fetal bovine serum (FBS, PAA) to high-glucose DMEM and pre-warmed to 37° C. Cells were thawed in a 37° C. water bath for no longer than 2 min. […] Pellet was resuspended in 5 ml of medium and cells were counted with the Cellometer. […]
# as §3, with “octuplicates. […]” for “octuplicates.”
# as §4
# [1] = system: 4H system [HUVEC+(IL-4 and histamine)]; test: BioMAP 4H system; assay type: cell-based, Human
# Source text: In this study LMW-DS was characterized by profiling in the BioMAP® Diversity PLUS panel. The BioMAP® panel consists of human primary cell-based systems designed to model different aspects of the human body in an in vitro format. The 12 systems in the BioMAP® Diversity PLUS panel (Table 32) allow test agent characterization in an unbiased way across a broad set of systems modeling various human disease states. The BioMA®P systems are constructed with one or more primary cell types from healthy human donors, with stimuli, such as cytokines or growth factors, added to capture relevant signaling networks that naturally occur in human tissue or pathological conditions. […]
# Systems are derived from either single cell types or co-culture systems. […] Test agents prepared in either DMSO (small molecules; final concentration 0.1%) or PBS (biologics) are added at the indicated concentrations 1-hr before stimulation, and remain in culture for 24-hrs or as otherwise indicated (48-hrs, MyoF system; 72-hrs, BT system (soluble readouts); 168-hrs, BT system (secreted IgG)). […] Soluble factors from supernatants are quantified using either HTRF® detection, bead-based multiplex immunoassay or capture ELISA. Overt adverse effects of test agents on cell proliferation and viability (cytotoxicity) are detected by sulforhodamine B (SRB) staining, for adherent cells, and alamarBlue® reduction for cells in suspension. […]
substance,measurement,setting,value
low molecular weight dextran sulfate [LMW-DS],cell numbers,mouse cortical neurons,significantly reduced
same,fraction of apoptotic cells,mouse cortical neurons,increased slightly
same,number of cells in the G2/M phase (PI content),mouse cortical neurons; 24 and 48 h,appeared to increase the number of cells in the G2/M phase
same,fraction of apoptotic cells,human Schwann cells,reduced
same,number of cells in the G2/M phase (PI content),human Schwann cells,appeared to increase the number of cells in the G2/M phase
same,Increased biomarker activity,[1],uPAR
